The source of these data is US8119624B2, “Fused phenyl amido heterocyclic compounds” (Pfizer Inc., priority 2006, dated 2012).

This assay addresses T1, Full-length glucokinase (beta cell isoform) (Homo sapiens, UniProt P35557).
T1 construct: Full-length glucokinase (beta cell isoform) was His-tagged at N-terminus; His tag (N); made in house
T1 sequence (P35557 1-465): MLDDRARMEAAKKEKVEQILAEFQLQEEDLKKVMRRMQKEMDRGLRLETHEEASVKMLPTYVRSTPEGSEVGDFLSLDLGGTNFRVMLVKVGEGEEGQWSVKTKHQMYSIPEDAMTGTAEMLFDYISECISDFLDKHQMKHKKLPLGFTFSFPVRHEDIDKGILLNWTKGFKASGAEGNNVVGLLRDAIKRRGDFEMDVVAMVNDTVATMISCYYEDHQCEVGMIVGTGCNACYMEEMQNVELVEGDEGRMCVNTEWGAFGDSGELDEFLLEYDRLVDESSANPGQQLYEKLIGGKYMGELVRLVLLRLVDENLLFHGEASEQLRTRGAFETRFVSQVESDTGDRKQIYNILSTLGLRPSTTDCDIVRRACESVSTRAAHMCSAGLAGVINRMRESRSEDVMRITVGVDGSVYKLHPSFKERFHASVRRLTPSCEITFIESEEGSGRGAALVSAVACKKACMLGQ
The assay can be described thus: Glucokinase biochemical assay (PK/LDH-coupled, NADH depletion at 340 nm): % activation, EC50, % max activation. The note with it: 5 mM glucose; for activation at 10 µM: 10 uM compound, % Activation=(Va/Vo−1)×100, read-out: % Activation at 10 uM; for EC50: GK activation, read-out: EC50; for Emax: fitted maximum activation, read-out: % Max Activation. The gist of the method: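 N-terminally His-tagged full-length human beta-cell glucokinase, room temperature, 5 mM glucose, 1 mM ATP, PK/LDH-coupled with 0.7 mM NADH, 1% DMSO final. Initial velocity from the 200–900 s slope of A340 decline. % activation = (Va/Vo−1)×100, measured across compound concentrations.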

By EC50 is commonly meant the concentration at which the effect is half-maximal.

As to `CCOc1ccc(NC(=O)c2cc(Oc3ccc(S(=O)(=O)N4CCC4)cc3)c3cc(C)oc3c2)nc1` [Example 302, 4-(4-(Azetidin-1-ylsulfonyl)phenoxy)-N-(5-ethoxypyridin-2-yl)-2-methyl-benzofuran-6-carboxamide], the activation at 10 µM turned out to be 123%, the EC50 amounted to 1300 nM and the Emax came to 110%.

For `COc1cnc(NC(=O)c2cc(Oc3ccc(S(=O)(=O)N4CCC4)cc3)c3cc(C)oc3c2)cn1` [Example 303, 4-(4-(Azetidin-1-ylsulfonyl)phenoxy)-N-(5-methoxypyrazin-2-yl)-2-methyl-benzofuran-6-carboxamide], the activation at 10 µM was 195%, the EC50 worked out at 650 nM and the Emax was found to be 179%.

Turning to `Cc1ccc(NC(=O)c2cc(Oc3ccc(S(=O)(=O)N(C)C)c(F)c3)c3cc(C)oc3c2)nc1` [Example 304, 4-{4-[(Dimethylamino)sulfonyl]-3-fluorophenoxy}-2-methyl-N-(5-methyl-pyridin-2-yl)-1-benzofuran-6-carboxamide], the activation at 10 µM came out at 94.6%, the concentration for a half-maximal effect (EC50) was 240 nM and the Emax turned out to be 89%.

On to `Cc1cc2c(Oc3ccc(S(=O)(=O)N(C)C)c(F)c3)cc(C(=O)Nc3ccn(C)n3)cc2o1` [Example 305, 4-{4-[(Dimethylamino)sulfonyl]-3-fluorophenoxy}-2-methyl-N-(1-methyl-1H-pyrazol-3-yl)-1-benzofuran-6-carboxamide], for which the activation at 10 µM worked out at 166%, the concentration giving a half-maximal response (EC50) is 140 nM and the Emax is 168%.

In the case of `Cc1cc2c(Oc3ccc(S(=O)(=O)N(C)C)c(F)c3)cc(C(=O)Nc3cnn(C)n3)cc2o1` [Example 306, 4-{4-[(Dimethylamino)sulfonyl]-3-fluorophenoxy}-2-methyl-N-(2-methyl-2H-1,2,3-triazol-4-yl)-1-benzofuran-6-carboxamide], the activation at 10 µM turned out to be 185%, the EC50 is 330 nM and the Emax turned out to be 186%.

On to `COc1cnc(NC(=O)c2cc(Oc3ccc(S(=O)(=O)N(C)C)c(F)c3)c3cc(C)oc3c2)cn1` [Example 307, 4-{4-[(Dimethylamino)sulfonyl]-3-fluorophenoxy}-N-(5-methoxypyrazin-2-yl)-2-methyl-1-benzofuran-6-carboxamide], for which the activation at 10 µM was 153%, the 50% effective concentration (EC50) was 400 nM and the Emax came to 156%.

With `Cc1cc2c(Oc3ccc(S(=O)(=O)N(C)C)c(F)c3)cc(C(=O)Nc3cnc(N(C)C)cn3)cc2o1` [Example 308, N-[5-(Dimethylamino)pyrazin-2-yl]-4-{4-[(dimethylamino)-sulfonyl]-3-fluorophenoxy}-2-methyl-1-benzofuran-6-carboxamide], the activation at 10 µM amounted to 141%, the EC50 was 110 nM and the Emax stood at 131%.

Take `COCc1cc2c(Oc3ccc(S(C)(=O)=O)cc3)cc(C(=O)Nc3ccc(C)cn3)cc2o1` [Example 309, 2-(Methoxymethyl)-N-(5-methylpyridin-2-yl)-4-[4-(methylsulfonyl)-phenoxy]-1-benzofuran-6-carboxamide]: the activation at 10 µM was 72.3%, the EC50 turned out to be 230 nM and the Emax was determined as 81%.

Turning to `COCc1cc2c(Oc3ccc(S(C)(=O)=O)cc3)cc(C(=O)Nc3ccn(C)n3)cc2o1` [Example 310, 2-(Methoxymethyl)-N-(1-methyl-1H-pyrazol-3-yl)-4-[4-(methylsulfonyl)-phenoxy]-1-benzofuran-6-carboxamide], the activation at 10 µM was found to be 118%, the concentration giving a half-maximal response (EC50) stood at 730 nM and the Emax amounted to 137%.

For `COCc1cc2c(Oc3ccc(S(C)(=O)=O)cc3)cc(C(=O)Nc3cnc(N(C)C)cn3)cc2o1` [Example 311, N-[5-(Dimethylamino)pyrazin-2-yl]-2-(methoxymethyl)-4-[4-(methylsulfonyl)-phenoxy]-1-benzofuran-6-carboxamide], the activation at 10 µM worked out at 106%, the EC50 turned out to be 380 nM and the Emax was found to be 114%.

Turning to `COCc1cc2c(Oc3ccc(S(C)(=O)=O)cc3)cc(C(=O)Nc3cnc(OC)cn3)cc2o1` [Example 312, 2-(Methoxymethyl)-N-(5-methoxypyrazin-2-yl)-4-[4-(methylsulfonyl)phenoxy]-1-benzofuran-6-carboxamide], the activation at 10 µM worked out at 112%, the EC50 was 490 nM and the Emax turned out to be 121%.

For the compound `COCc1cc2c(Oc3ccc(S(C)(=O)=O)cc3)cc(C(=O)Nc3cnn(C)n3)cc2o1` [Example 313, 2-(Methoxymethyl)-4-[4-(methylsulfonyl)phenoxy]-N-(2-methyl-2H-1,2,3-triazol-4-yl)-1-benzofuran-6-carboxamide], the activation at 10 µM is 131%, the EC50 turned out to be 920 nM and the Emax was found to be 155%.

In the case of `COCc1cc2c(Oc3ccc(S(C)(=O)=O)cc3)cc(C(=O)Nc3cc(OC)ccn3)cc2o1` [Example 314, 2-(Methoxymethyl)-N-(4-methoxypyridin-2-yl)-4-[4-(methylsulfonyl)phenoxy]-1-benzofuran-6-carboxamide], the activation at 10 µM was 47.3%, the half-maximal effective concentration (EC50) was found to be 330 nM and the Emax was found to be 46%.

For the compound `COCc1cc2c(Oc3ccc(S(C)(=O)=O)cc3)cc(C(=O)Nc3cc(C)on3)cc2o1` [Example 315, 2-(Methoxymethyl)-N-(5-methylisoxazol-3-yl)-4-[4-(methylsulfonyl)phenoxy]-1-benzofuran-6-carboxamide], the activation at 10 µM worked out at 11.9%.

As for `Cc1ccc(NC(=O)c2cc(Oc3ccc(S(C)(=O)=O)cc3)c3cc(CO)oc3c2)nc1` [Example 316, 2-(Hydroxymethyl)-N-(5-methylpyridin-2-yl)-4-(4-(methylsulfonyl)-phenoxy)benzofuran-6-carboxamide], the activation at 10 µM amounted to 73.7%, the EC50 came out at 410 nM and the Emax was 78%.

Regarding `Cn1ccc(NC(=O)c2cc(Oc3ccc(S(C)(=O)=O)cc3)c3cc(CO)oc3c2)n1` [Example 317, 2-(Hydroxymethyl)-N-(1-methyl-1H-pyrazol-3-yl)-4-[4-(methylsulfonyl)-phenoxy]-1-benzofuran-6-carboxamide], the activation at 10 µM is 186%, the EC50 turned out to be 1700 nM and the Emax turned out to be 228%.

Consider `Cn1ccc(NC(=O)c2cc(Oc3ccc(S(C)(=O)=O)cc3)c3cc(CN4CCCC4=O)oc3c2)n1` [Example 318, N-(1-Methyl-1H-pyrazol-3-yl)-4-[4-(methylsulfonyl)phenoxy]-2-[(2-oxopyrrolidin-1-yl)methyl]-1-benzofuran-6-carboxamide], for which the activation at 10 µM is 91.3% and the EC50 was > 10000 nM.

In the case of `Cc1ccc(NC(=O)c2cc(Oc3ccc(S(C)(=O)=O)cc3)c3cc(CN(C)C)oc3c2)nc1` [Example 319, 2-[(Dimethylamino)methyl]-N-(5-methylpyridin-2-yl)-4-[4-(methylsulfonyl)-phenoxy]-1-benzofuran-6-carboxamide], the activation at 10 µM is 59.7%, the EC50 was determined as 5000 nM and the Emax is 90%.

Consider `Cc1ccc(NC(=O)c2cc(Oc3ccc(S(C)(=O)=O)cc3)c3cc(Cn4ccnc4C)oc3c2)nc1` [Example 320, 2-[(2-Methyl-1H-imidazol-1-yl)methyl]-N-(5-methylpyridin-2-yl)-4-[4-(methylsulfonyl)phenoxy]-1-benzofuran-6-carboxamide], for which the activation at 10 µM was found to be 39.2%, the EC50 was determined as 2500 nM and the Emax is 41%.
